# Experimental data as given in US7235691B2, “Crystalline forms of modafinil” (priority 2000, dated 2007).
# Tests used:
# [1] = Heating of crystalline forms, analysed by x-ray powder diffraction; type: physicochemical; conditions: for chemical decomposition on heating: heating/drying at about 100° C.; for crystalline form after heating in an oven: about 30 minutes at about 100° C.
# Procedure: X-ray diffraction data were acquired using a Philips powder X-ray diffractometer, Goniometer model 1050/70 at a scanning speed of 2° per minute, with a CUKα radiation of λ=1.5418 Å. The sample was gently ground and dusted over a zero background quartz plate to give a thin layer.
# Forms V and VI convert into modafinil Form I upon gentle heating to about 80° C. or above.
# Modafinil Form I may be separated from solvents conventionally by filtering or decanting and then drying.
# By Heating Modafinil Forms V or VI A small aliquot of Modafinil Forms V and VI are heated separately, for about 30 minutes, in an oven at about 100° C.
# [2] = type: physicochemical; conditions: for crystalline form conversion when suspended in water: time and temperature not stated; for crystalline form after suspension in distilled water: distilled water pH about 5.9, stirred about 24 hours at about 37° C.
Structure (SMILES),chemical decomposition on heating [1],crystalline form conversion when suspended in water [2],crystalline form after suspension in distilled water [2],crystalline form after heating in an oven [1],also measured
"NC(=O)C[S+]([O-])C(c1ccccc1)c1ccccc1 (racemic) [Form I, (±) 2-[(Diphenylmethyl)sulfinyl]acetamide, reference compound]",without undergoing significant chemical decomposition,,,,crystalline form after drying at elevated temperature ([1]; dried at a temperature as high as 100° C.): without converting to another crystalline or amorphous form
"NC(=O)C[S+]([O-])C(c1ccccc1)c1ccccc1 (racemic) [Form II, (±) 2-[(Diphenylmethyl)sulfinyl]acetamide]",,converted into Form I modafinil,,,
"NC(=O)C[S+]([O-])C(c1ccccc1)c1ccccc1 (racemic) [Form III, (±) 2-[(Diphenylmethyl)sulfinyl]acetamide]",,converts into modafinil Form II,determined to be modafinil Form II,,
"NC(=O)C[S+]([O-])C(c1ccccc1)c1ccccc1 (racemic) [Form IV, (±) 2-[(Diphenylmethyl)sulfinyl]acetamide]",,,determined to be modafinil Form I,,
"NC(=O)C[S+]([O-])C(c1ccccc1)c1ccccc1 (racemic) [Form V, (±) 2-[(Diphenylmethyl)sulfinyl]acetamide]",without significant decomposition,,,determined to be Form I,
"NC(=O)C[S+]([O-])C(c1ccccc1)c1ccccc1 (racemic) [Form VI, (±) 2-[(Diphenylmethyl)sulfinyl]acetamide]",without significant decomposition,,,determined to be Form I,
